From the OPERA property sets (Mansouri et al. 2018)

Structure (SMILES)	logP
Cc1no[n+]([O-])c1C=O	1.29
Cc1nonc1Sc1ccccc1	2.92
[O-][n+]1onc(-c2ccccc2)c1-c1ccccc1	3.64
Cc1nonc1C	0.71
c1ccc(-c2nonc2-c2ccccc2)cc1	3.83
CCc1nonc1C	1.18
Cc1c(Sc2ccccc2)no[n+]1[O-]	2.63
c1ccc2nsnc2c1	1.98
Cc1nonc1[N+](=O)[O-]	0.97
COC(=O)Nc1nonc1C	0.42
Cc1c(Cl)no[n+]1[O-]	1.02
CCCc1nonc1C	1.71
CCS(=O)(=O)c1no[n+]([O-])c1C	0.65
Cc1c(C(N)=O)no[n+]1[O-]	0.03
O=Cc1no[n+]([O-])c1-c1ccccc1	2.61
c1ccc2nonc2c1	1.69
Cc1nonc1N	0.09
Cc1no[n+]([O-])c1C	0.23
Nc1nonc1N	-0.49
CC(=O)c1no[n+]([O-])c1C	0.8
CC(=O)Nc1nonc1N	-0.23
[O-][n+]1onc(Cc2ccccc2)c1Cc1ccccc1	3.65

Structure (SMILES)	logP
[O-][n+]1onc(-c2ccccc2)c1CO	1.77
Nc1nonc1-c1ccccc1	1.81
[O-][n+]1onc2ccccc21	1.43
CC(=O)c1c(C)no[n+]1[O-]	0.98
Cc1nsnc1C	1.28
OCc1nonc1-c1ccccc1	1.92
[O-][n+]1onc(-c2ccccc2)c1Cl	2.7
Cc1nonc1S(=O)(=O)c1ccccc1	2.36
Cc1no[n+]([O-])c1Cl	0.9
Cc1c(S(=O)(=O)c2ccccc2)no[n+]1[O-]	2.03
Nc1no[n+]([O-])c1-c1ccccc1	1.47
Cc1no[n+]([O-])c1-c1ccccc1	2.16
Cc1nonc1-c1ccccc1[N+](=O)[O-]	2.21
Cc1c(Cc2ccccc2)no[n+]1[O-]	2.08
Cc1nonc1S(=O)c1ccccc1 (stereo not given)	1.76
Cc1nonc1-c1ccccc1	2.59
c1ccc2n[se]nc2c1	1.64
Cc1c(S(=O)c2ccccc2)no[n+]1[O-] (stereo not given)	1.5
c1cnon1	0.16
[O-][n+]1onc(CO)c1-c1ccccc1	1.64
Clc1nonc1-c1ccccc1	3.2
Cc1n[se]nc1C	0.89

Structure (SMILES)	logP
COC(=O)c1no[n+]([O-])c1C	0.56
CNC(=O)c1nonc1C	0.56
Cc1no[n+]([O-])c1N	-0.32
Cc1c(C=O)no[n+]1[O-]	1.02
Nc1c(-c2ccccc2)no[n+]1[O-]	1.42
O=Cc1c(-c2ccccc2)no[n+]1[O-]	2.92
CC(=O)Nc1nonc1C	0.17
Cc1nonc1C(N)=O	0.31
Cc1no[n+]([O-])c1S(=O)c1ccccc1 (stereo not given)	1.75
Cc1no[n+]([O-])c1Sc1ccccc1	2.74
Cc1c(N)no[n+]1[O-]	-0.17
Nc1nonc1NC(=O)c1ccccc1	1.41
Cc1c(-c2ccccc2)no[n+]1[O-]	2.17
Cc1no[n+]([O-])c1S(=O)(=O)c1ccccc1	2.26
O=[N+]([O-])c1nonc1-c1ccccc1	2.63
COC(=O)c1nonc1C	0.94
CNC(=O)Nc1nonc1C	0.3
Cc1no[n+]([O-])c1Cc1ccccc1	2.22
COC(=O)c1c(C)no[n+]1[O-]	0.69
[O-][n+]1onc(Cl)c1-c1ccccc1	2.82
Cc1no[n+]([O-])c1C(N)=O	0.36
